Laboratory results: patent publication US20140113874A1, “Modified Compstatin With Improved Stability And Binding Properties” (THE TRUSTEES OF THE UNIVERSITY OF PENNSYLVANIA, priority 2010, published 2014)
Numbered stars: 1 amine (or outer) side, 2 acyl side, 3 side chain; on linkers, the order of the positions; unused ones are H or OH. Bridge positions count the residues as written; N and C are the ends. Square brackets hold non-standard residues; d marks the D form. Peptide text beside a SMILES is read from it. Trp(1-Me) = Cn1cc(C[C@H](N)C(=O)O)c2ccccc21; Abu(4-yl) = O=C([C@H](CC[*:3])N[*:1])[*:2]; NMeI = CC[C@H](C)[C@H](NC)C(=O)O; Sar = CNCC(=O)O

Columns and labels:
C3b = C3b (Homo sapiens, UniProt P01024); assay: Biacore SPR kinetic analysis on captured biotinylated C3b; conditions: 1:1 binding model; average of multiple datasets
C3b, sequence (P01024 23-667 limits assumed): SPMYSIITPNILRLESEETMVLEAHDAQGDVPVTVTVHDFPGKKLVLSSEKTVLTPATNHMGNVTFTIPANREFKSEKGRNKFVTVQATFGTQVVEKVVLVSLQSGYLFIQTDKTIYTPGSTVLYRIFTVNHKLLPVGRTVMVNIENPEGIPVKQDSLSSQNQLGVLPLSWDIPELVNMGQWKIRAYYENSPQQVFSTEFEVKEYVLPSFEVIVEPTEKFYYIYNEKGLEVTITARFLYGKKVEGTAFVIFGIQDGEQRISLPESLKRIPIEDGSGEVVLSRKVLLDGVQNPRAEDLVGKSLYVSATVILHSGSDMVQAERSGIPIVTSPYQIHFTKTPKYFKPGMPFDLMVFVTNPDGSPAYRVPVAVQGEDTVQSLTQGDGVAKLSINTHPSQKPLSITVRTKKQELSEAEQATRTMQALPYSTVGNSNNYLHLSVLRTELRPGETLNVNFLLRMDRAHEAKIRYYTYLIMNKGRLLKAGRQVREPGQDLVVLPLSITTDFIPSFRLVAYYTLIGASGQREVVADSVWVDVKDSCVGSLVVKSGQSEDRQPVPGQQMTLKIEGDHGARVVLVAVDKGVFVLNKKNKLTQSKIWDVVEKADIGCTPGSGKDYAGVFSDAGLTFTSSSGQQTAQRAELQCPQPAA
C3b, sequence (P01024 749-1663 partner limits assumed): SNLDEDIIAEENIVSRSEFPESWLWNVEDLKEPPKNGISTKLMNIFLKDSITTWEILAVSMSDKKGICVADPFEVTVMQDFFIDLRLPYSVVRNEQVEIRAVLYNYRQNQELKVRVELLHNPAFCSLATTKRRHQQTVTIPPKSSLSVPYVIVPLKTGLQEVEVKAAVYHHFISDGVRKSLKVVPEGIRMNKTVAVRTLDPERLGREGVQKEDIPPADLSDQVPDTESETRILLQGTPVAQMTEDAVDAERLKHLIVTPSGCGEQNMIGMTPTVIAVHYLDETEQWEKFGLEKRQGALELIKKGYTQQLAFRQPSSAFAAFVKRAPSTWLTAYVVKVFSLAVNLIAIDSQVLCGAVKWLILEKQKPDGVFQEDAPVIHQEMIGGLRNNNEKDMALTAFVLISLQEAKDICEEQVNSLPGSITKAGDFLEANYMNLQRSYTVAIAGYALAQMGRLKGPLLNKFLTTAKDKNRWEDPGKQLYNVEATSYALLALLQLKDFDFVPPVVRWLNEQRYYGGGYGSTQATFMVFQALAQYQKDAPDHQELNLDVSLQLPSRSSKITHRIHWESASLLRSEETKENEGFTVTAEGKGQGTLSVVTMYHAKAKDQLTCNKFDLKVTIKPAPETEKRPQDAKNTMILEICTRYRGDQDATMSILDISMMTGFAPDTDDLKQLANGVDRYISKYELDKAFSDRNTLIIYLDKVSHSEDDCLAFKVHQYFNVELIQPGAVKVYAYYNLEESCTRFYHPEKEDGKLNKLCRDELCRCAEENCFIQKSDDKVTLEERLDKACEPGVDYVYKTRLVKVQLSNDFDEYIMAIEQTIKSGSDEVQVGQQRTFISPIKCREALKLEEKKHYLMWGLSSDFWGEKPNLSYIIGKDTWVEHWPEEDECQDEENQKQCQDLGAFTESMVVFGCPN
Description: The interaction of the compstatin analogs with C3b was characterized using a Biacore 3000 instrument (GE Healthcare, Corp., Piscataway, N.J.). The running buffer was PBS, pH 7.4 (10 mM sodium phosphate, 150 mM NaCl) with 0.005% Tween-20. Biotinylated C3b was captured site-specifically on a streptravidin chip at about 3000, 4000 and 5000 RU density; an untreated flowcell was used as a reference surface. For kinetic analysis, sets of five samples of increasing concentrations were injected over the chip surface one after the other in a single cycle. […] The data analysis was performed using BiaEvaluation. The processed signals were fitted to a 1:1 binding model and kinetic constants were extracted. […] 2 min injections at 30 ul/min were performed, after which a 3 min dissociation was monitored. […] Data analysis followed using Scrubber (BioLogic Software, Campbell, Australia). The processed signals were globally fitted to a Langmuir 1:1 binding isotherm and kinetic constants were extracted.

Biotinylated C3b = Biotinylated C3b (UniProt P01024); assay: SPR (Biacore 3000), single-cycle kinetics, peptide over biotinylated C3b captured on streptavidin chip, 1:1 model
[1] = tested on: classical pathway of complement activation; assay: ELISA-based complement inhibition assay (antigen-antibody complex initiated, C3b deposition); assay type: biochemical; conditions: for relative activity (rank order) in inhibition of antigen-antibody complex-initiated complement activation: FIG. 4, representative result; for IC50: read-out: IC50, concentration at which the peptides inhibit complement activation by 50%, plasma 1:80 in VB++, average of five datasets
Description: An ELISA-based assay was performed to assess the complement inhibitory ability of the compstatin analogs. Briefly, an antigen-antibody complex was used as an initiator of the classical pathway of complement activation. […] Incubation followed to allow complement activation. The deposition of C3b on the plate was measured by a polyclonal anti-C3 antibody. The percentage of inhibition was plotted against the compstatin concentration and fitted to a logistic dose-response function using OriginPro 8.

[2] = molecular target: T1, Complement C3 (in plasma) (UniProt P01024 23-1663, limits assumed); assay: cell-based or functional assay
T1 sequence (P01024 23-1663 limits assumed): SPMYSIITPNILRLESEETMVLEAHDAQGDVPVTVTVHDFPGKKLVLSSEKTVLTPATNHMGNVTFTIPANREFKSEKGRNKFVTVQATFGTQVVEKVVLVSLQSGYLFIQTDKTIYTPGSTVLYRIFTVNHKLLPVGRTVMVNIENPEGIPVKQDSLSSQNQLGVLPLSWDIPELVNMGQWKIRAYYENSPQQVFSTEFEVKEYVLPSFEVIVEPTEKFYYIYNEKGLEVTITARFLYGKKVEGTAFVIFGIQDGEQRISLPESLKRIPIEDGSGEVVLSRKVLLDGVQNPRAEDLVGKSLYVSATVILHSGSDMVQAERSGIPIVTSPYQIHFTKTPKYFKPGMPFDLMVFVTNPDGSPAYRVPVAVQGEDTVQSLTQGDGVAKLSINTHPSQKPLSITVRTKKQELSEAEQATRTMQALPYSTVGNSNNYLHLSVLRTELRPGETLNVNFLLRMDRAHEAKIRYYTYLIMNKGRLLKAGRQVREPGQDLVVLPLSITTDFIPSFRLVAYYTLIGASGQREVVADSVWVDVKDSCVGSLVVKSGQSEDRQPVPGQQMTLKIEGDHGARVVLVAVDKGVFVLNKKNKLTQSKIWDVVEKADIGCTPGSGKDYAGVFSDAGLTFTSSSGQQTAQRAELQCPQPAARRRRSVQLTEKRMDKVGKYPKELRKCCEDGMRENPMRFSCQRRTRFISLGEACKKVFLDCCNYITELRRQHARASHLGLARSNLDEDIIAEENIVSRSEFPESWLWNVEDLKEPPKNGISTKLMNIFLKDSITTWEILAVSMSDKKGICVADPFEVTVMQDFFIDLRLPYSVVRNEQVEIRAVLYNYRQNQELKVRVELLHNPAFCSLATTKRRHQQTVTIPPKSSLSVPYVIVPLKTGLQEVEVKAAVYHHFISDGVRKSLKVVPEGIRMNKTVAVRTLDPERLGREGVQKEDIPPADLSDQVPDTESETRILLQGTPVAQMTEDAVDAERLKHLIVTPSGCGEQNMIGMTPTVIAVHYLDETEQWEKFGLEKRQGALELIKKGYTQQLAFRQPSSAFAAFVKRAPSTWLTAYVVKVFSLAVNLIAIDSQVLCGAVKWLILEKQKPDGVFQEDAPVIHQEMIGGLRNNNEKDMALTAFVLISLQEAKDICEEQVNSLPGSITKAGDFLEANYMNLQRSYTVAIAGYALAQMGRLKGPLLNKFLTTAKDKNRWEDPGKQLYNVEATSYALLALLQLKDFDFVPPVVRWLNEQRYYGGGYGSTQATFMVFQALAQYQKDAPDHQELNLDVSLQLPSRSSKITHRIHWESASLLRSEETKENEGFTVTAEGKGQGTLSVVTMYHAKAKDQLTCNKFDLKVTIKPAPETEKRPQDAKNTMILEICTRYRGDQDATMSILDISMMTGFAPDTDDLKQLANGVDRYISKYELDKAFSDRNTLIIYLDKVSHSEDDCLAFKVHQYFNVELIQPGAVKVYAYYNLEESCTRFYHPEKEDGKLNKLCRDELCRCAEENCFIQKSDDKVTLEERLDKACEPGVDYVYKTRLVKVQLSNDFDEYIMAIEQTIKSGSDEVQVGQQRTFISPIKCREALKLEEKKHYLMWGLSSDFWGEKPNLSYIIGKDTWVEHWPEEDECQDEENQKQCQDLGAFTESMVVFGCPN

[3] = molecular target: T1, Complement C3 (in plasma); assay: cell-based or functional assay; remark: listed apart in the source

CC[C@H](C)[C@H](NC(C)=O)C(=O)N[C@H]1CSCC[C@@H](C(=O)N[C@H](C(N)=O)[C@@H](C)O)NC(=O)[C@H](CCCNC(=N)N)NC(=O)[C@H](Cc2c[nH]cn2)NC(=O)[C@H](C)NC(=O)CNC(=O)[C@H](Cc2c[nH]c3ccccc23)NC(=O)[C@H](CC(=O)O)NC(=O)[C@H](CCC(N)=O)NC(=O)[C@H](Cc2c[nH]c3ccccc23)NC(=O)[C@H](C(C)C)NC1=O [Delta-Cth] (Ac-ICVWQDWGAHR[Abu(4-yl)]T-NH2; thioether 2-12)
kd (C3b): 11 ± 1.9 10^−2 s^−1

CP20 compstatin analog (disulfide control) (peptide)
Kd (Biotinylated C3b): 2.4 nM
koff (Biotinylated C3b): 0.004 s⁻¹
kon (Biotinylated C3b): 1.86e+06 M⁻¹ s⁻¹

CC[C@H](C)[C@H](NC(C)=O)C(=O)N[C@H]1CSSC[C@@H](C(=O)N(C)[C@H](C(N)=O)[C@@H](C)CC)NC(=O)[C@H](CCCNC(=N)N)NC(=O)[C@H](Cc2c[nH]cn2)NC(=O)[C@H](C)NC(=O)CN(C)C(=O)[C@H](Cc2c[nH]c3ccccc23)NC(=O)[C@H](CC(=O)O)NC(=O)[C@H](CCC(N)=O)NC(=O)[C@H](Cc2cn(C)c3ccccc23)NC(=O)[C@H](C(C)C)NC1=O [CP20, AC-Ic[CV(^1-MeW)QDW(^N-MeG)AHRC](^N-MeI)-NH2, reference compound]
relative activity (rank order) in inhibition of antigen-antibody complex-initiated complement activation [1]: CP20>delta-Cth CP20>4W9A>delta-Cth>gamma-Cth
IC50 [1]: 130 ± 50 nM
kd (C3b): 0.4 ± 0.1 10^−2 s^−1

CC[C@H](C)[C@H](NC(C)=O)C(=O)N[C@H]1CCSC[C@@H](C(=O)N[C@H](C(N)=O)[C@@H](C)O)NC(=O)[C@H](CCCNC(=N)N)NC(=O)[C@H](Cc2c[nH]cn2)NC(=O)[C@H](C)NC(=O)CNC(=O)[C@H](Cc2c[nH]c3ccccc23)NC(=O)[C@H](CC(=O)O)NC(=O)[C@H](CCC(N)=O)NC(=O)[C@H](Cc2c[nH]c3ccccc23)NC(=O)[C@H](C(C)C)NC1=O [Gamma-Cth] (Ac-I[Abu(4-yl)]VWQDWGAHRCT-NH2; thioether 2-12)
kd (C3b): 46.8 ± 5.7 10^−2 s^−1

CC[C@H](C)[C@H](NC(C)=O)C(=O)N[C@H]1CSCC[C@@H](C(=O)N(C)[C@H](C(N)=O)[C@@H](C)CC)NC(=O)[C@H](CCCNC(=N)N)NC(=O)[C@H](Cc2c[nH]cn2)NC(=O)[C@H](C)NC(=O)CN(C)C(=O)[C@H](Cc2c[nH]c3ccccc23)NC(=O)[C@H](CC(=O)O)NC(=O)[C@H](CCC(N)=O)NC(=O)[C@H](Cc2cn(C)c3ccccc23)NC(=O)[C@H](C(C)C)NC1=O [Delta-Cth CP20, Ac-Ic[CV(^1-MeW)QDW(^N-MeG)AHRC](^N-MeI)-NH2] (Ac-ICV[Trp(1-Me)]QDW[Sar]AHR[Abu(4-yl)][NMeI]-NH2; thioether 2-12)
relative activity (rank order) in inhibition of antigen-antibody complex-initiated complement activation [1]: CP20>delta-Cth CP20>4W9A>delta-Cth>gamma-Cth
IC50 [1]: 260 ± 90 nM
kd (C3b): 1.5 ± 0.4 10^−2 s^−1

B1: CP20 delta-Cth (delta-cystathionine CP20 compstatin analog) (peptide)
peptide: ICVWQDWGAHRCI
modifications: N-terminal acetyl (Ac-Ile1); 1-methyl-Trp at position 4; N-methyl-Gly at position 8; N-methyl-Ile at position 13; C-terminal amide (-NH2); C2-C12 thioether bond forming delta-cystathionine
IC50, inhibition of antigen-antibody complex-initiated (classical pathway) complement activation, C3b deposition ELISA [2]: 260 nM
IC50 (read off the curve) [3]: ~300 nM

B2: CP20 compstatin analog (disulfide control) (peptide)
peptide: Ac-ICV[Trp(1-Me)]QDW[Sar]AHRC[NMeI]-NH2
modifications: disulfide 2-12
SMILES: CC[C@H](C)[C@H](NC(C)=O)C(=O)N[C@H]1CSSC[C@@H](C(=O)N(C)[C@H](C(N)=O)[C@@H](C)CC)NC(=O)[C@H](CCCNC(=N)N)NC(=O)[C@H](Cc2c[nH]cn2)NC(=O)[C@H](C)NC(=O)CN(C)C(=O)[C@H](Cc2c[nH]c3ccccc23)NC(=O)[C@H](CC(=O)O)NC(=O)[C@H](CCC(N)=O)NC(=O)[C@H](Cc2cn(C)c3ccccc23)NC(=O)[C@H](C(C)C)NC1=O
IC50, inhibition of antigen-antibody complex-initiated (classical pathway) complement activation, C3b deposition ELISA [2]: 130 nM
IC50 (read off the curve) [3]: ~100 nM
